# Measured values reported in ChEMBL document CHEMBL1201862, “PubChem BioAssay data set” (2004).
# Active and inactive are the calls of the source.
# Key:
# [1] = molecular target: T1, Replicative DNA helicase DnaB (Mycobacterium tuberculosis, UniProt P9WMR3); experiment: DnaB intein splicing inhibitors, dose response, biochemical, cell-free fluorescence (AID 449749); assay type: functional
# T1 sequence (P9WMR3 whole entry): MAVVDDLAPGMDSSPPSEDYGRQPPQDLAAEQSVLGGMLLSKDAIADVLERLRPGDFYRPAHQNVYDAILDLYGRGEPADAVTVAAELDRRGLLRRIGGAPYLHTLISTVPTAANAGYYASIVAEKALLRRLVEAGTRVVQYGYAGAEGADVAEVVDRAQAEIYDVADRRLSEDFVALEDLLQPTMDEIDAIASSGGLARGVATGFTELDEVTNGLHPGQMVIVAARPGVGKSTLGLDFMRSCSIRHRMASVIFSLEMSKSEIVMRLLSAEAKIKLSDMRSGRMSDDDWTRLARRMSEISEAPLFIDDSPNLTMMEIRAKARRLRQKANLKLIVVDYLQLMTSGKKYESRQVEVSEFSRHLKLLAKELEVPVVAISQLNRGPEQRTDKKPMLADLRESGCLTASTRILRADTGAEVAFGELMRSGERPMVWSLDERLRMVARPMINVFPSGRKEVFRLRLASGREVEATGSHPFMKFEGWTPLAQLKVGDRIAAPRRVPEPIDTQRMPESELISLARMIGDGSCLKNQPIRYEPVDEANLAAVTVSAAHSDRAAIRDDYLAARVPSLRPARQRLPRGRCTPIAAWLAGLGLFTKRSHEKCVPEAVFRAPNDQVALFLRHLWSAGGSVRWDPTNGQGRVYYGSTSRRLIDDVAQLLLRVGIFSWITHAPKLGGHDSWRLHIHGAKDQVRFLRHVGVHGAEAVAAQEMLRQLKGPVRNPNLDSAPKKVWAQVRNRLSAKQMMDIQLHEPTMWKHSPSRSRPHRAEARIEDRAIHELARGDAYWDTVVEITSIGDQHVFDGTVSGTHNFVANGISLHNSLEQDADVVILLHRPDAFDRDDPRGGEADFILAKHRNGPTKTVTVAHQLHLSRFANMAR
# Protein RecA = molecular target: T2, Protein RecA (Mycobacterium tuberculosis, UniProt P9WHJ3); experiment: Fluorescence Cell-Free Homogeneous Dose Retest to Identify Inhibitors of RecA-Intein Splicing Activity. [Related pubchem assays (depositor defined):AID2097, AID2223, AID489010, AID492950]; assay type: functional
# T2 sequence (P9WHJ3 whole entry): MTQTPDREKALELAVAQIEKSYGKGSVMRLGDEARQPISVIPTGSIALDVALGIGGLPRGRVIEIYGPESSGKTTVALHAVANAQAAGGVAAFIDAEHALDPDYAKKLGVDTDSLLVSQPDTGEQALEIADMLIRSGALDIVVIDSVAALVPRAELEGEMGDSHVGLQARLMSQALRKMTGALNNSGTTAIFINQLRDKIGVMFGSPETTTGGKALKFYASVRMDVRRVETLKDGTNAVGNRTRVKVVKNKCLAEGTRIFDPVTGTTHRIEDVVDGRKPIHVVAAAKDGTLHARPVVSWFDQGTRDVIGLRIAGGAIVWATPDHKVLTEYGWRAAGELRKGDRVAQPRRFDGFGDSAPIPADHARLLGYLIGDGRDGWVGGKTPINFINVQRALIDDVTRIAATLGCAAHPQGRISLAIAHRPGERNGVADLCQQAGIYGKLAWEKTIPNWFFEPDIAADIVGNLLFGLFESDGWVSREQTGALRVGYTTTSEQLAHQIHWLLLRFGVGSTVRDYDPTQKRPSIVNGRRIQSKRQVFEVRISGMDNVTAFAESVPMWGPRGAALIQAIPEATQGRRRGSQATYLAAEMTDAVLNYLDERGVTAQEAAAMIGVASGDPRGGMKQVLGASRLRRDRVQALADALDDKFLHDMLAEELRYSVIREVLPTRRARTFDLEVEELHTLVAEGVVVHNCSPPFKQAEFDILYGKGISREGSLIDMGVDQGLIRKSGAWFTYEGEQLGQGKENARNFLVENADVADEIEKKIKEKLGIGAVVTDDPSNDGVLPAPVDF
# [2] = molecular target: T3, Sentrin-specific protease 8 (Homo sapiens, UniProt Q96LD8); assay type: functional
# T3 sequence (Q96LD8 whole entry): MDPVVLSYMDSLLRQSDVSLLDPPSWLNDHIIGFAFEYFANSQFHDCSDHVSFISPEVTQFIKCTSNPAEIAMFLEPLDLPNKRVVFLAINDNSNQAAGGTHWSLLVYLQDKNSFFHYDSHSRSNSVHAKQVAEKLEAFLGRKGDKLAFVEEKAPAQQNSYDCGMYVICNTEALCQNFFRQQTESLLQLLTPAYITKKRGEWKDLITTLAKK
# [3] = molecular target: T3, Sentrin-specific protease 8; assay type: functional; remark: listed apart in the source
# Caspase-3 = molecular target: T4, Caspase-3 (Homo sapiens, UniProt P42574); experiment: Dose-response confirmation of uHTS inhibitor hits of Sentrin-Specific Protease 8 in a Caspase-3 Fluorescence assay.; assay type: functional
# T4 sequence (P42574 whole entry): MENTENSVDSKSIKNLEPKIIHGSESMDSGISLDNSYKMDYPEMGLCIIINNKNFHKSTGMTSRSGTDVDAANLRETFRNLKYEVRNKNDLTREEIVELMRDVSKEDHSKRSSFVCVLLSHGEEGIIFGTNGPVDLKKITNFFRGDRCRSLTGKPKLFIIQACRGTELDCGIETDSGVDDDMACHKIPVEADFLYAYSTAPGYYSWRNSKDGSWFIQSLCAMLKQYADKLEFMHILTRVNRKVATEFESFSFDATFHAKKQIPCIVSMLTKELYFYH
# [4] = Shn3 3'UTR reporter inhibitors, dose response, cell-based, Clone20 osteoblasts, firefly luciferase, cherry-picked (AID 624132); assay type: functional;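 note: firefly luciferase luminescence from reporter carrying the Shn3 3'UTR in osteoblasts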
# [5] = HepG2 cell cytotoxicity, dose response, cytotoxicity control for Shn3 inhibitor project, CellTiter-Glo, cherry-picked (AID 624134); assay type: functional, cell-based
# [6] = control 3'UTR Renilla luciferase suppression, dose response, counter-screen for Shn3 inhibitor project, cell-based, Clone20-Shn3RL, cherry-picked (AID 624133); assay type: functional
# [7] = Fluorescence-based cell-based high throughput dose response assay for inhibitors of the interaction of nucleotide-binding oligomerization domain containing 2 (NOD2) and the receptor-interacting serine-threonine kinase 2 (RIPK2).; assay type: functional; settings: Homo sapiens
# Beta Lactamase = Beta Lactamase (Pseudomonas aeruginosa, UniProt Q932Y6); experiment: beta-lactamase reporter inhibitor potency, dose response, artefact control for NOD2-RIPK2 interaction inhibitor project, BLA reporter cells, FRET fluorescence (AID 651552); assay type: functional, cell-based
# Paired box protein Pax-8 = Paired box protein Pax-8 (Homo sapiens, UniProt Q06710); experiment: inhibitors of PAX8-driven TPO luciferase reporter, dose response, RMG-I cells, cherry-pick (AID 687027); assay type: functional, cell-based;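 note: luciferase reporter driven by Pax8 target thyroperoxidase promoter measured by SteadyGlo luminescence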
# Beta-lactamase [8] = molecular target: Beta-lactamase (Pseudomonas aeruginosa, UniProt Q79MP6);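 note: biochemical dose-response test of metallo-beta-lactamase enzyme inhibition, read out by epi-absorbance; purified recombinant IMP-1 metallo-beta-lactamase with nitrocefin as substrate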
# Beta-lactamase [9] = molecular target: Beta-lactamase (Salmonella choleraesuis (strain SC-B67), UniProt Q5J463)
# [10] = MDA-MB-231 cell growth inhibition, dose response, cytotoxicity control for RAD54 inhibitor project, CellTiter-Glo luminescence, cherry-pick (AID 651692); assay type: functional, cell-based
# [11] = molecular target: T5, DNA repair and recombination protein RAD54-like (Homo sapiens, UniProt Q92698); experiment: inhibitors of human RAD54 branch migration, confirmation, biochemical, fluorescence, cherry-picked samples, dose series (AID 651657); assay type: functional
# T5 sequence (Q92698 whole entry): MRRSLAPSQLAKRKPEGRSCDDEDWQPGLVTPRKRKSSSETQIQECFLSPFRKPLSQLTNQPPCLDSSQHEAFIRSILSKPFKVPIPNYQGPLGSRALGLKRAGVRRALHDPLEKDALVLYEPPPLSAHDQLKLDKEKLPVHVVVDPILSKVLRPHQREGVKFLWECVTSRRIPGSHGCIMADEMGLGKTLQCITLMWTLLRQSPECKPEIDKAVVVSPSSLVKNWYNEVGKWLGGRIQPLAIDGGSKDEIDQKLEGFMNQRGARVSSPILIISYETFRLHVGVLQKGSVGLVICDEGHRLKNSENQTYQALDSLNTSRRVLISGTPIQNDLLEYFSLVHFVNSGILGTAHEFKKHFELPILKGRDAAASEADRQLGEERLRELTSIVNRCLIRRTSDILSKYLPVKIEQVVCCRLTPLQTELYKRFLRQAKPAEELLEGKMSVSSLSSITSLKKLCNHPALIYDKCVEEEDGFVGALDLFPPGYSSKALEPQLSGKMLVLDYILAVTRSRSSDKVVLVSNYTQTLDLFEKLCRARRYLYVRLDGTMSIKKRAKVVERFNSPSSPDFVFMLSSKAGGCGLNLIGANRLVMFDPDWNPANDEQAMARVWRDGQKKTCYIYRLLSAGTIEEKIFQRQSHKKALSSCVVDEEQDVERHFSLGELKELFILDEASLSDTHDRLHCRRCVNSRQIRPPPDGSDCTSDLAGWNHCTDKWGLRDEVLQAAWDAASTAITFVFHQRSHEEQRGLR
# [12] = molecular target: DNA repair protein RAD52 homolog (Homo sapiens, UniProt P43351); assay type: functional, biochemical
# [13] = molecular target: Nuclear receptor subfamily 5 group A member 2 (Homo sapiens, UniProt O00482); assay type: functional, cell-based;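 note: HEK293T cells transfected with LRH-1 and a StAR promoter luciferase reporter; potency for inhibitors that lower LRH-1 driven reporter light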
# Steroidogenic factor 1 = Steroidogenic factor 1 (Homo sapiens, UniProt Q13285); experiment: Counterscreen for inverse agonists of the liver receptor homolog-1 (LRH-1; NR5A2): Luminescence-based cell-based high throughput dose response assay to identify inverse agonists of the Steroidogenic Factor 1 Nuclear Receptor (SF1; NR5A1).; assay type: functional
# [14] = StAR promoter reporter inhibition counter-screen, dose response, counter-screen for LRH-1 inverse agonist project, cell-based, luminescence, luciferase reporter (AID 651969); assay type: functional
# [15] = Inhibition of T. cruzi Tulahuen strain amastigotes in L-6 muscle cells Measured in Cell-Based and Microorganism Combination System Using Plate Reader - 2138-03_Inhibitor_Dose_CherryPick_Activity.; assay type: functional; settings: Rattus norvegicus, L6
# [16] = cytotoxicity in L-6 rat myocytes, dose response, cytotoxicity control, cell-based, plate reader, cherry-pick (AID 651896); assay type: functional
# [17] = Inhibition of Plasmodium falciparum NF54 Measured in Cell-Based System Using Plate Reader - 2138-11_Inhibitor_Dose_CherryPick_Activity.; assay type: functional
# [18] = L. donovani amastigote growth inhibition, dose response, axenic amastigotes, plate reader, cherry pick (AID 651891); assay type: functional, cell-based; settings: Leishmania donovani
# [19] = intracellular Trypanosoma cruzi inhibitors in host cells – cell-based, plate reader, cherry-pick samples, set 3, dose response (AID 651818); assay type: functional;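 note: compounds incubated with infected cells for about four days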
# [20] = T. b. rhodesiense proliferation inhibition, dose response, STIB900 strain, plate reader, cherry pick (AID 651893); assay type: functional, cell-based; settings: Trypanosoma brucei
# Chain of Steroidogenic factor 1 (Q13285 whole entry): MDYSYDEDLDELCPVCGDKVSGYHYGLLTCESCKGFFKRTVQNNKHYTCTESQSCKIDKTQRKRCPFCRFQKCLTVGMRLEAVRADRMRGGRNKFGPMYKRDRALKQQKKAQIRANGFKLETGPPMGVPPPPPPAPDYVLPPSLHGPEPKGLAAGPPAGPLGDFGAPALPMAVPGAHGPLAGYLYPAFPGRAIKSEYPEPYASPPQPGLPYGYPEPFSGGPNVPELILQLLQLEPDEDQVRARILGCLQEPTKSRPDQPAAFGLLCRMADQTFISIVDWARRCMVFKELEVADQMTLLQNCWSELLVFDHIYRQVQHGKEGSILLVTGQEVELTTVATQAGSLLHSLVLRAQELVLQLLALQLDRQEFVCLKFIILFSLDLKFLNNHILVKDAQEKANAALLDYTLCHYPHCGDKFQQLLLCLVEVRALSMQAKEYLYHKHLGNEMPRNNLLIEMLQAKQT
# Chain of DNA repair protein RAD52 homolog (P43351 whole entry): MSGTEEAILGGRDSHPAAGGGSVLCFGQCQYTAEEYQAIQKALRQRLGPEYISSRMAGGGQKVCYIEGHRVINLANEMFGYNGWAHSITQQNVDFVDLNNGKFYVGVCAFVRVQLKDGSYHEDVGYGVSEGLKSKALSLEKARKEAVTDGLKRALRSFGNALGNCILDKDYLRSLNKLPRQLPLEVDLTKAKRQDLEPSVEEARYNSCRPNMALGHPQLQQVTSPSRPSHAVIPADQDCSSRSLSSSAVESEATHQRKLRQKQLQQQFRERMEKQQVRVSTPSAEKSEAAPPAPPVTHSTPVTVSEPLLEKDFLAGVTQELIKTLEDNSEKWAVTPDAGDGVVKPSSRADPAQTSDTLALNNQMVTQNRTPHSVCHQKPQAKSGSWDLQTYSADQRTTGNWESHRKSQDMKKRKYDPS
# Chain of Paired box protein Pax-8 (Q06710 whole entry): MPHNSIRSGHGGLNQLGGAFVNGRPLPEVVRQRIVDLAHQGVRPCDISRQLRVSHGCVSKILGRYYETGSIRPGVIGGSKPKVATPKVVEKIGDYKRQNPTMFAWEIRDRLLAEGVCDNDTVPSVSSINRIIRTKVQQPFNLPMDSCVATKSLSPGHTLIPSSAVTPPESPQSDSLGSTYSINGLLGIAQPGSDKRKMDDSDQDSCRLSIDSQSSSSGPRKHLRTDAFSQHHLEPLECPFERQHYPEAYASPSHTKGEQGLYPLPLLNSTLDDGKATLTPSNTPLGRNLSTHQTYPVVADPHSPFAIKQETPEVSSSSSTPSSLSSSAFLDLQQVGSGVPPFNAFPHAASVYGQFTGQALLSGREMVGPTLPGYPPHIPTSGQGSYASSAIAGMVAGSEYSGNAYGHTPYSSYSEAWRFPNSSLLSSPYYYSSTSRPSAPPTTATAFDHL
# Chain of Beta Lactamase (Q932Y6 whole entry): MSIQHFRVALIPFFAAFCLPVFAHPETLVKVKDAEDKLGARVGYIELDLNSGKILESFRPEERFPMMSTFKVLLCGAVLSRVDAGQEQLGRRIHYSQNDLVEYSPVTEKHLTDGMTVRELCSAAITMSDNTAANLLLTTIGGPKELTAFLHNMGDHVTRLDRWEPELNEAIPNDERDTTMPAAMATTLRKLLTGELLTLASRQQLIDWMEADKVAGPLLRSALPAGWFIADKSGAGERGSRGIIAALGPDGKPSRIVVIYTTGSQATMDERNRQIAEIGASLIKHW
# Chain of Nuclear receptor subfamily 5 group A member 2 (O00482 whole entry): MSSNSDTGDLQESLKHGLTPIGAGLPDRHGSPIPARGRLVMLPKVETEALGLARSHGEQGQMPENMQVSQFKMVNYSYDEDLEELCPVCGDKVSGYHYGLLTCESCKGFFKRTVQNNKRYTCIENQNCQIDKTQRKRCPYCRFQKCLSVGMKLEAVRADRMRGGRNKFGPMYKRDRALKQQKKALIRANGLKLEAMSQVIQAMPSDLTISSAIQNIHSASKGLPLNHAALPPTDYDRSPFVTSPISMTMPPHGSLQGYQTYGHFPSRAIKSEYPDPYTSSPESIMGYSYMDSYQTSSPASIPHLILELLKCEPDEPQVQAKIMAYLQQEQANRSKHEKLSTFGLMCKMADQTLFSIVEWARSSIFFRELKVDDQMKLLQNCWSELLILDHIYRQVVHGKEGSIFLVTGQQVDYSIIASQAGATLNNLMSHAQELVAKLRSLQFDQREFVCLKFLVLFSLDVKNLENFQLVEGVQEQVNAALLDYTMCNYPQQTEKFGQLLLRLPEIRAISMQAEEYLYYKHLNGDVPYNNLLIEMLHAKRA
# Chain of Beta-lactamase (Salmonella choleraesuis (strain SC-B67), UniProt Q5J463) (Q5J463 whole entry): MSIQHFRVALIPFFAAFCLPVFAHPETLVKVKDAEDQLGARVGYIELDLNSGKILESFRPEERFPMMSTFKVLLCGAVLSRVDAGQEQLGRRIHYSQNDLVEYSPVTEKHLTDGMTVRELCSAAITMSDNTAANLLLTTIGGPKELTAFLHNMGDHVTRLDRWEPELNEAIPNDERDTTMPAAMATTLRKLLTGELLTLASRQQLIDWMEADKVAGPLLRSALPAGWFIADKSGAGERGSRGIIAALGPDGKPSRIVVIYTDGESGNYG
# Chain of Beta-lactamase (Pseudomonas aeruginosa, UniProt Q79MP6) (Q79MP6 whole entry): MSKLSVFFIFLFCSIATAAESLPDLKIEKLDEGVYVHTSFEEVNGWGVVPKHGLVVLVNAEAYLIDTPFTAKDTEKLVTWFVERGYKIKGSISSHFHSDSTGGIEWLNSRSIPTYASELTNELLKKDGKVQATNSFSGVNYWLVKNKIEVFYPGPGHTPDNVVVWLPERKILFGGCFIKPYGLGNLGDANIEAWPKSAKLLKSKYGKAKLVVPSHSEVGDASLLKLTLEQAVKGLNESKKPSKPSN
compound,measurement,setting,value
COc1ccc(-c2csc(CCN3N=C(C)CC3=O)n2)cc1,AC50,[1],3.27 µM (active)
same,EC50,Protein RecA,1.54 µM (active)
same,IC50,[2],12.1 µM (active)
same,IC50,[3],14.6 µM (active)
same,IC50,Caspase-3,100 µM (inactive)
CC1CC(C)CC(C)C(O)C(C#N)=CC=CCC(C2CCCC2C(=O)O)OC(=O)CC(O)C(C)C1 (stereo not given),AC50,[4],< 0.26 µM (active)
same,AC50,[5],10.2 µM (active)
same,AC50,[6],1.08 µM (active)
same,IC50,[7],49.8 µM (inactive)
same,IC50,Beta Lactamase,49.8 µM (inactive)
same,AC50,Paired box protein Pax-8,< 0.26 µM (active)
CC(C)(C)c1ccc(-c2c(C(=O)O)c(C(=O)O)c3n2CSC3)cc1,IC50,Beta-lactamase [8],35.1 µM (inactive)
same,IC50,Beta-lactamase [9],> 59.6 µM (inactive)
COc1cc2ccccc2cc1C(=O)N(CCN(C)C)c1nc2c(OC)ccc(OC)c2s1,AC50,[10],18.1 µM (active)
same,AC50,[11],100 µM (inactive)
same,AC50,[12],7.36 µM (active)
CCCN(CC(=O)Nc1ccc(C(C)=O)cc1)CC(=O)Nc1ccccc1C,IC50,[13],12 µM (inactive)
same,IC50,Steroidogenic factor 1,0.941 µM (active)
same,IC50,[14],35.9 µM (inactive)
C[C@H](CO)N1C[C@H](C)[C@H](CN(C)Cc2ccccc2)Oc2c(NC(=O)c3ccncc3)cccc2C1=O,IC50,[15],20.6 µM (inactive)
same,IC50,[16],> 100 µM (inactive)
same,IC50,[17],20.6 µM (inactive)
same,IC50,[18],> 100 µM (inactive)
same,AC50,[19],0.208 µM (active)
same,IC50,[20],75.4 µM (inactive)
